Data on eleven compounds can be found in patent publication US20090221433A1, “SMALL MOLECULE PRINTING” (priority 2006, published 2009).

Broadly, the pKd is the negative decadic logarithm of the Kd, by convention in mol/L.

Experiment [1] relates to anti-corticosterone antibody. Nature of the experiment: Bioactive microarray binding profile, anti-corticosterone antibody. The conditions noted are these: anti-corticosterone then Alexa Fluor 647 goat-anti-rabbit; replicate arrays. Here is the method:
(§1) To investigate the suitability of our approach for printing compounds that have not been intentionally synthesized with appendages for covalent capture, more than 300 commercially available bioactive compounds were printed onto isocyanate-functionalized slides. We screened these bioactive microarrays using rabbit primary antibodies against corticosterone, digitoxin, and 17β-estradiol, followed by a fluor-labeled goat anti-rabbit secondary antibody. The signal-to-noise ratio (SNR) was determined by calculating intensity at 635 nm and adjusting for local background for each feature on replicate arrays, and data were compared to replicate control arrays incubated with the labeled secondary antibody alone (FIG. 4). Six bioactives, with signal-to-noise ratios>3.0, were found in replicate arrays to bind to the labeled polyclonal secondary antibody alone. None of the compounds were autofluorescent at 635 nm as judged by arrays probed with PBS buffer alone (data not shown). Hygromycin B, an aminoglycoside antibiotic, gave the highest adjusted signal-to-noise ratio (mean SNR 47.6). […] In the anti-corticosterone antibody binding profile, hydrocortisone (mean SNR 68.9), beclomethasone (63.3), and corticosterone (59.2), corticosteroids related in structure, scored as positives. […] 17β-estradiol (mean SNR 9.0), estriol (8.7) and estrone (7.3), primary estrogenic hormones varying in the number of reactive groups for capture, scored as positives in the anti-17β-estradiol binding profile.
Small-molecule microarray profiles with antibodies against natural products. Microarrays printed with natural products and bioactives were incubated with various antibodies to detect specific compounds. […] Arrays were dried by centrifugation and scanned for fluorescence at 635 nm. Signal-to-noise ratio was calculated for each feature using adjusted diameters.

Experiment [2] relates to anti-17β-estradiol antibody. Nature of the experiment: Bioactive microarray binding profile, anti-17β-estradiol antibody. The conditions noted are these: anti-17β-estradiol then labeled secondary antibody; replicate arrays. Further details: species or system rabbit. Here is the method:
as §1, with “4).” for “4). Six bioactives, with signal-to-noise ratios>3.0, were found in replicate arrays to bind to the labeled polyclonal secondary antibody alone. None of the compounds were autofluorescent at 635 nm as judged by arrays probed with PBS buffer alone (data not shown). Hygromycin B, an aminoglycoside antibiotic, gave the highest adjusted signal-to-noise ratio (mean SNR 47.6).”
(§2) Small-molecule microarray profiles with antibodies against natural products. […] Arrays were dried by centrifugation and scanned for fluorescence at 635 nm. Signal-to-noise ratio was calculated for each feature using adjusted diameters.

The subject of experiment [3] is anti-digitoxin antibody. Nature of the experiment: Bioactive microarray binding profile, anti-digitoxin antibody. On the set-up: species or system rabbit. The conditions noted are these: anti-digitoxin then labeled secondary antibody; replicate arrays. The method, then:
We screened these bioactive microarrays using rabbit primary antibodies against corticosterone, digitoxin, and 17β-estradiol, followed by a fluor-labeled goat anti-rabbit secondary antibody. The signal-to-noise ratio (SNR) was determined by calculating intensity at 635 nm and adjusting for local background for each feature on replicate arrays, and data were compared to replicate control arrays incubated with the labeled secondary antibody alone (FIG. 4).
Microarrays printed with natural products and bioactives were incubated with various antibodies to detect specific compounds. In the first incubation step, arrays were incubated with 300 μL of one of the following: PBST buffer (control), a 1:500 solution of rabbit anti-corticosterone whole antiserum in PBST, 1:500 solution of rabbit anti-17β-estradiol whole antiserum in PBST for 30 min at room temperature. The arrays were briefly rinsed with PBST and then washed twice in PBST. All arrays were then incubated with 300 μL of a 1:1000 solution of Alexa Fluor® 647 […] polyclonal secondary antibody in PBST for 30 min at room temperature. Probed arrays were rinsed in PBST, washed three times in PBST, and washed once in PBS. Arrays were dried by centrifugation and scanned for fluorescence at 635 nm. Signal-to-noise ratio was calculated for each feature using adjusted diameters.

Experiment [4] deals with FKBP12 (Homo sapiens, UniProt P62942). The conditions noted are these: affinity of AP1497 for FKBP12; cited from earlier work.
Sequence of FKBP12 (P62942 whole entry, species assumed): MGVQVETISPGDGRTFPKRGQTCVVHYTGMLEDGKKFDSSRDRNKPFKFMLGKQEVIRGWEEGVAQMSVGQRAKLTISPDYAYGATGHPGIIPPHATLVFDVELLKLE
Experiment [5] addresses T1, FKBP12-6xHis (Homo sapiens, UniProt P62942).
T1 construct: made in house
The conditions noted are these: Table 1; cited from earlier work.

In experiment [6] the test system is Alexa Fluor 647 goat-anti-rabbit IgG. Nature of the experiment: Bioactive microarray control, labeled secondary antibody alone. In kind it is binding. The conditions noted are these: labeled polyclonal secondary antibody alone. The method, then:
as §1, with “4).” for “4). Six bioactives, with signal-to-noise ratios>3.0, were found in replicate arrays to bind to the labeled polyclonal secondary antibody alone. None of the compounds were autofluorescent at 635 nm as judged by arrays probed with PBS buffer alone (data not shown). Hygromycin B, an aminoglycoside antibiotic, gave the highest adjusted signal-to-noise ratio (mean SNR 47.6).”
as §2

pKd: −log10 of the molar value.

T1 sequence (P62942 whole entry): as the sequence (P62942 whole entry, species assumed) above

`C[C@]12CCC(=O)C=C1CC[C@@H]1[C@@H]2[C@@H](O)C[C@@]2(C)[C@H]1CC[C@]2(O)C(=O)CO` [hydrocortisone]: the “mean SNR (signal-to-noise ratio at 635 nm)” value in experiment [1] is given as 68.9.
On to `C[C@]12CC[C@@H]3c4ccc(O)cc4CC[C@H]3[C@@H]1CC[C@@H]2O` [17β-estradiol], for which the “mean SNR (signal-to-noise ratio at 635 nm)” value in experiment [2] was 9.0.
Consider `C[C@]12CC[C@@H]3c4ccc(O)cc4CC[C@H]3[C@@H]1C[C@@H](O)[C@@H]2O` [estriol], for which, in experiment [2], the “mean SNR (signal-to-noise ratio at 635 nm)” value was 8.7.
Consider `CC(=O)O[C@H]1C[C@H](O[C@H]2[C@@H](O)C[C@H](O[C@H]3[C@@H](O)C[C@H](O[C@H]4CC[C@@]5(C)[C@H](CC[C@@H]6[C@@H]5C[C@@H](O)[C@]5(C)[C@@H](C7=CC(=O)OC7)CC[C@]65O)C4)O[C@@H]3C)O[C@@H]2C)O[C@H](C)[C@H]1O[C@@H]1O[C@H](CO)[C@@H](O)[C@H](O)[C@H]1O` [lanatoside C], for which the “mean SNR (signal-to-noise ratio at 635 nm)” value in experiment [3] is 24.0.
Consider `C[C@H]1O[C@@H](O[C@H]2[C@@H](O)C[C@H](O[C@H]3[C@@H](O)C[C@H](O[C@H]4CC[C@@]5(C)[C@H](CC[C@@H]6[C@@H]5CC[C@]5(C)[C@@H](C7=CC(=O)OC7)CC[C@]65O)C4)O[C@@H]3C)O[C@@H]2C)C[C@H](O)[C@@H]1O` [digitoxin], for which, in experiment [3], the “mean SNR (signal-to-noise ratio at 635 nm)” value is reported as 15.1.
Consider `C[C@@H]1O[C@@H](O[C@H]2CC[C@]3(C=O)[C@H]4CC[C@]5(C)[C@@H](C6=CC(=O)OC6)CC[C@]5(O)[C@@H]4CC[C@]3(O)C2)[C@H](O)[C@H](O)[C@H]1O` [convallatoxin], for which the “mean SNR (signal-to-noise ratio at 635 nm)” value in experiment [3] was found to be 52.7.
For `C[C@]12C[C@H](O)[C@H]3[C@@H](CCC4=CC(=O)CC[C@@]43C)[C@@H]1CC[C@@H]2C(=O)CO` [corticosterone], the “mean SNR (signal-to-noise ratio at 635 nm)” value in experiment [1] was determined as 59.2.
For the compound `C[C@H]1C[C@H]2[C@@H]3CCC4=CC(=O)C=C[C@]4(C)[C@@]3(Cl)[C@@H](O)C[C@]2(C)[C@@]1(O)C(=O)CO` [beclomethasone], the “mean SNR (signal-to-noise ratio at 635 nm)” value in experiment [1] is given as 63.3.
As for AP1497, the results for the negative logarithm of the Kd (pKd) in experiment [4] and in experiment [5] were 8.06 and 7.74, respectively.
Regarding `C[C@]12CC[C@H](O)C[C@H]1CC[C@@H]1[C@@H]2CC[C@]2(C)[C@@H](C3=CC(=O)OC3)[C@@H](O)C[C@]12O` [Gitoxigenin], in experiment [3], the “mean SNR (signal-to-noise ratio at 635 nm)” value was found to be 62.5.
For `CN[C@H]1C[C@@H](N)[C@H](O)[C@@H](O[C@@H]2O[C@H](CO)[C@H](O)[C@@H]3OC4(O[C@H]23)O[C@H]([C@@H](N)CO)[C@H](O)[C@H](O)[C@H]4O)[C@@H]1O` (stereo partly drawn) [Hygromycin B], the “adjusted signal-to-noise ratio (mean SNR)” value in experiment [6] is given as 47.6.
